Several values for one entry are separate records, joined by “and”; a condition that tells them apart may be missing. Equal entries are not always repeated.
Test: Biodistribution in male Balb/C mice
Type: in vivo
Conditions: for brain uptake and washout (assessment in words): 5 to 60 min post injection; for Biodistribution: Blood / Biodistribution: Brain / Biodistribution: Fat / Biodistribution: Heart / Biodistribution: Kidney / Biodistribution: Liver / Biodistribution: Lung / Biodistribution: Muscle / Biodistribution: Pancreas / Biodistribution: Spleen: tail vein, mean ± SD, n = 4
Experimental: For the biodistribution studies, 100˜130 μCi of [^11C] TZ-20-35 in ˜100 μL of 10% ethanol/saline solution (v/v) was injected via the tail vein into mature male Balb/C mice (19-24 g) under anesthesia (2.5% isoflurane in oxygen at a flow rate of 1 mL/min). A group of at least four […] were used for each time point. […] The whole brain was quickly harvested. At the same time, samples of blood, heart, lung, liver, spleen, pancreas, kidney, muscle, fat, and tail were dissected. All the tissue samples were collected in tared tubes and counted in an automated gamma counter (Beckman Gamma 8000 well counter) with standards, prepared by diluting the injectate. The counted tissues were then weighed, and the % ID/g was calculated (Table 4).

Compound | brain uptake and washout (assessment in words) | Biodistribution: Blood (5 min post injection) | Biodistribution: Brain (5 min post injection) | Biodistribution: Fat (5 min post injection) | Biodistribution: Heart (5 min post injection) | Biodistribution: Kidney (5 min post injection) | Biodistribution: Liver (5 min post injection) | Biodistribution: Lung (5 min post injection) | Biodistribution: Muscle (5 min post injection) | Biodistribution: Pancreas (5 min post injection) | Biodistribution: Spleen (5 min post injection) | organ recovery (30 min post injection) | Biodistribution: Blood (30 min post injection) | Biodistribution: Brain (30 min post injection) | Biodistribution: Fat (30 min post injection) | Biodistribution: Heart (30 min post injection) | Biodistribution: Kidney (30 min post injection) | Biodistribution: Liver (30 min post injection) | Biodistribution: Lung (30 min post injection) | Biodistribution: Muscle (30 min post injection) | also measured
COC(=O)c1ccc(/C=C/c2ccncc2)cc1 [[^11C]TZ-20-35] | Brain uptake and the washout kinetics were very good | 5.21 ± 0.20 % ID/g | 5.71 % ID/g and 5.71 ± 0.44 % ID/g | 0.90 ± 0.42 % ID/g | 4.72 ± 0.34 % ID/g | 4.73 ± 0.41 % ID/g | 4.25 ± 0.36 % ID/g | 4.78 ± 0.21 % ID/g | 4.06 ± 0.13 % ID/g | 3.64 ± 0.44 % ID/g | 4.60 ± 0.16 % ID/g | 52% | 2.79 ± 0.43 % ID/g | 2.43 % ID/g and 2.43 ± 0.41 % ID/g | 0.86 ± 0.07 % ID/g | 2.61 ± 0.54 % ID/g | 4.43 ± 0.42 % ID/g | 8.72 ± 0.37 % ID/g | 2.94 ± 0.38 % ID/g | 2.25 ± 0.33 % ID/g | Biodistribution: Pancreas (30 min post injection): 3.54 ± 0.90 % ID/g; Biodistribution: Spleen (30 min post injection): 3.44 ± 0.23 % ID/g; organ recovery (60 min post injection): 34%; Biodistribution: Blood (60 min post injection): 1.75 ± 0.25 % ID/g; Biodistribution: Brain (60 min post injection): 1.68 % ID/g and 1.68 ± 0.26 % ID/g; Biodistribution: Fat (60 min post injection): 0.58 ± 0.09 % ID/g; Biodistribution: Heart (60 min post injection): 1.80 ± 0.18 % ID/g; Biodistribution: Kidney (60 min post injection): 4.23 ± 0.47 % ID/g; Biodistribution: Liver (60 min post injection): 10.17 ± 1.08 % ID/g; Biodistribution: Lung (60 min post injection): 2.21 ± 0.44 % ID/g; Biodistribution: Muscle (60 min post injection): 1.18 ± 0.10 % ID/g; Biodistribution: Pancreas (60 min post injection): 5.42 ± 1.25 % ID/g; Biodistribution: Spleen (60 min post injection): 3.30 ± 0.36 % ID/g
COc1ccc(NC(=O)c2ccc(/C=C/c3ccncc3)cc2)cc1 [[^11C]TZ-20-83] | brain uptake and washout aren't significant | 1.93 ± 0.15 % ID/g | 1.93 % ID/g and 1.93 ± 0.29 % ID/g | 1.94 ± 0.20 % ID/g | 2.31 ± 0.37 % ID/g | 17.55 ± 2.61 % ID/g | 37.98 ± 3.78 % ID/g | 11.22 ± 0.59 % ID/g | 1.18 ± 0.24 % ID/g | 3.09 ± 0.39 % ID/g | 18.77 ± 3.38 % ID/g | 58% | 1.59 ± 0.42 % ID/g | 1.63 % ID/g and 1.63 ± 0.33 % ID/g | 1.73 ± 0.36 % ID/g | 1.79 ± 0.35 % ID/g | 9.98 ± 1.76 % ID/g | 17.94 ± 3.86 % ID/g | 4.10 ± 0.96 % ID/g | 1.17 ± 0.23 % ID/g | Biodistribution: Pancreas (30 min post injection): 5.10 ± 1.09 % ID/g; Biodistribution: Spleen (30 min post injection): 3.49 ± 0.84 % ID/g; organ recovery (60 min post injection): 38%; Biodistribution: Blood (60 min post injection): 1.56 ± 0.12 % ID/g; Biodistribution: Brain (60 min post injection): 1.25 % ID/g and 1.25 ± 0.11 % ID/g; Biodistribution: Fat (60 min post injection): 1.05 ± 0.22 % ID/g; Biodistribution: Heart (60 min post injection): 1.48 ± 0.05 % ID/g; Biodistribution: Kidney (60 min post injection): 5.82 ± 0.47 % ID/g; Biodistribution: Liver (60 min post injection): 13.36 ± 1.75 % ID/g; Biodistribution: Lung (60 min post injection): 2.93 ± 0.22 % ID/g; Biodistribution: Muscle (60 min post injection): 0.92 ± 0.14 % ID/g; Biodistribution: Pancreas (60 min post injection): 6.96 ± 0.51 % ID/g; Biodistribution: Spleen (60 min post injection): 3.21 ± 0.76 % ID/g

From patent publication US10300155B2, “Alpha-synuclein ligands” (Washington University, priority 2015, dated 2019)
